Test results: ChEMBL document CHEMBL4811224, “Antibacterial Prenylated p-Hydroxybenzoic Acid Derivatives from Oberonia myosurus and Identification of Putative Prenyltransferases” (2021)
In brackets after ≈: the same amount, converted by molar mass.

Tested on: Staphylococcus aureus
Assay: Antibacterial activity against Staphylococcus aureus subsp. aureus ATCC 29213 assessed as bacterial growth inhibition incubated for 24 hrs by Reed-Muench method
Type: functional

Row | Compound | MIC50
1 | C=C(C)C(O)Cc1cc(C(=O)O)cc2c1OC(C)(C)C=C2 (stereo not drawn) | 81 µg/mL (≈ 281 µM)
2 | CC(C)=CCc1cc(C(=O)O[C@@H]2CC(C(=O)O)=C[C@@H](O)[C@H]2O)cc2c1OC(C)(C)C=C2 | 56 µg/mL (≈ 131 µM)
3 | CC(C)=CCc1cc(C(=O)O)cc2c1OC(C)(C)C=C2 | 15 µg/mL (≈ 55.1 µM)
4 | C=C(C)C(O)Cc1cc(C(=O)O)cc(CC=C(C)C)c1O (stereo not drawn) | 89 µg/mL (≈ 307 µM)

More lines, in order of falling MIC50, values ahead:

Row | MIC50 | Compound
5 | 93 µg/mL (≈ 323 µM) | CC(C)=CCc1cc(C(=O)O)cc2c1OC(C)(C)CC2=O
6 | 23 µg/mL (≈ 58.9 µM) | CC(C)=CCc1cc(C(=O)O[C@H](C)[C@@](C)(O)C(=O)O)cc(CC=C(C)C)c1O
7 | 7.6 µg/mL (≈ 27.7 µM) | CC(C)=CCc1cc(C(=O)O)cc(CC=C(C)C)c1O
8 | 0.53 µg/mL | CC1(C)S[C@@H]2[C@H](NC(=O)Cc3ccccc3)C(=O)N2[C@H]1C(=O)[O-].[Na+] [PENICILLIN G SODIUM]
